Calls of active or inactive are those of the source. The rule behind the calls is not given here.
Assays:
[1] = tested on: MCF7; assay: Induction of apoptosis in human MCF7 cells assessed as late apoptotic cells at 5 uM after 72 hrs by Annexin V-FITC/propidium iodide based flow cytometric analysis (reference value: 1.28 %); type: functional
[2] = tested on: MCF7; assay: Induction of apoptosis in human MCF7 cells assessed as early apoptotic cells at 5 uM after 72 hrs by Annexin V-FITC/propidium iodide based flow cytometric analysis (reference value: 1.14 %); type: functional
[3] = tested on: MCF7; assay: Induction of apoptosis in human MCF7 cells assessed as viable cells at 5 uM after 72 hrs by Annexin V-FITC/propidium iodide based flow cytometric analysis (reference value: 94.10 %); type: functional; conditions: MCF7, 72 h, read-out: Activity
[4] = Cytotoxicity against human A549 cells after 48 hrs by SRB assay; type: functional, cell-based; conditions: A549, 48 h
[5] = Cytotoxicity against human SKOV3 cells after 48 hrs by SRB assay; type: functional, cell-based; conditions: SK-OV-3, 48 h
[6] = Cytotoxicity against human SK-MEL-2 cells after 48 hrs by SRB assay; type: functional, cell-based; conditions: SK-MEL-2, 48 h
[7] = Cytotoxicity against human HCT15 cells after 48 hrs by SRB assay; type: functional, cell-based; conditions: HCT-15, 48 h
[8] = (§1) Cytotoxicity against human MDA-MB-231 cells assessed as reduction in cell viability after 72 hrs by WST1 assay; type: functional, cell-based; conditions: MDA-MB-231, 72 h
[9] = tested on: MDA-MB-231; assay: as §1; type: functional, cell-based
[10] = tested on: MCF7; assay: Cytotoxicity against human MCF7 cells assessed as reduction in cell viability after 72 hrs by WST1 assay; type: functional, cell-based
[11] = tested on: MDA-MB-231; assay: Induction of apoptosis in human MDA-MB-231 cells assessed as necrotic cells at 5 uM after 72 hrs by Annexin V-FITC/propidium iodide based flow cytometric analysis (reference value: 0.33 %); type: functional
[12] = tested on: MDA-MB-231; assay: Induction of apoptosis in human MDA-MB-231 cells assessed as viable cells at 5 uM after 72 hrs by Annexin V-FITC/propidium iodide based flow cytometric analysis (reference value: 91.87 %); type: functional; conditions: MDA-MB-231, 72 h, read-out: Activity
[13] = tested on: MDA-MB-231; assay: Induction of apoptosis in human MDA-MB-231 cells assessed as early apoptotic cells at 5 uM after 72 hrs by Annexin V-FITC/propidium iodide based flow cytometric analysis (reference value: 7.73 %); type: functional
[14] = tested on: MDA-MB-231; assay: Induction of apoptosis in human MDA-MB-231 cells assessed as late apoptotic cells at 5 uM after 72 hrs by Annexin V-FITC/propidium iodide based flow cytometric analysis (reference value: 0.07 %); type: functional
[15] = tested on: MDA-MB-231; assay: Induction of apoptosis in human MDA-MB-231 cells assessed as viable cells at 10 uM after 72 hrs by Annexin V-FITC/propidium iodide based flow cytometric analysis (reference value: 91.87 %); type: functional; conditions: MDA-MB-231, 72 h, read-out: Activity
[16] = tested on: MDA-MB-231; assay: Induction of apoptosis in human MDA-MB-231 cells assessed as early apoptotic cells at 10 uM after 72 hrs by Annexin V-FITC/propidium iodide based flow cytometric analysis (reference value: 7.73 %); type: functional
[17] = tested on: MDA-MB-231; assay: Induction of apoptosis in human MDA-MB-231 cells assessed as late apoptotic cells at 10 uM after 72 hrs by Annexin V-FITC/propidium iodide based flow cytometric analysis (reference value: 0.07 %); type: functional
[18] = tested on: MDA-MB-231; assay: Induction of apoptosis in human MDA-MB-231 cells assessed as necrotic cells at 10 uM after 72 hrs by Annexin V-FITC/propidium iodide based flow cytometric analysis (reference value: 0.33 %); type: functional
[19] = tested on: MDA-MB-231; assay: Induction of apoptosis in human MDA-MB-231 cells assessed as viable cells at 20 uM after 72 hrs by Annexin V-FITC/propidium iodide based flow cytometric analysis (reference value: 91.87 %); type: functional; conditions: MDA-MB-231, 72 h, read-out: Activity
[20] = tested on: MDA-MB-231; assay: Induction of apoptosis in human MDA-MB-231 cells assessed as early apoptotic cells at 20 uM after 72 hrs by Annexin V-FITC/propidium iodide based flow cytometric analysis (reference value: 7.73 %); type: functional
[21] = tested on: MDA-MB-231; assay: Induction of apoptosis in human MDA-MB-231 cells assessed as late apoptotic cells at 20 uM after 72 hrs by Annexin V-FITC/propidium iodide based flow cytometric analysis (reference value: 0.07 %); type: functional
[22] = tested on: MDA-MB-231; assay: Induction of apoptosis in human MDA-MB-231 cells assessed as necrotic cells at 20 uM after 72 hrs by Annexin V-FITC/propidium iodide based flow cytometric analysis (reference value: 0.33 %); type: functional
[23] = tested on: MCF7; assay: Induction of apoptosis in human MCF7 cells assessed as necrotic cells at 5 uM after 72 hrs by Annexin V-FITC/propidium iodide based flow cytometric analysis (reference value: 3.48 %); type: functional
[24] = tested on: MCF7; assay: Induction of apoptosis in human MCF7 cells assessed as viable cells at 10 uM after 72 hrs by Annexin V-FITC/propidium iodide based flow cytometric analysis (reference value: 94.10 %); type: functional; conditions: MCF7, 72 h, read-out: Activity
[25] = tested on: MCF7; assay: Induction of apoptosis in human MCF7 cells assessed as early apoptotic cells at 10 uM after 72 hrs by Annexin V-FITC/propidium iodide based flow cytometric analysis (reference value: 1.14 %); type: functional
[26] = tested on: MCF7; assay: Induction of apoptosis in human MCF7 cells assessed as late apoptotic cells at 10 uM after 72 hrs by Annexin V-FITC/propidium iodide based flow cytometric analysis (reference value: 1.28 %); type: functional
[27] = tested on: MCF7; assay: Induction of apoptosis in human MCF7 cells assessed as necrotic cells at 10 uM after 72 hrs by Annexin V-FITC/propidium iodide based flow cytometric analysis (reference value: 3.48 %); type: functional
[28] = tested on: MCF7; assay: Induction of apoptosis in human MCF7 cells assessed as viable cells at 20 uM after 72 hrs by Annexin V-FITC/propidium iodide based flow cytometric analysis (reference value: 94.10 %); type: functional; conditions: MCF7, 72 h, read-out: Activity
[29] = tested on: MCF7; assay: Induction of apoptosis in human MCF7 cells assessed as early apoptotic cells at 20 uM after 72 hrs by Annexin V-FITC/propidium iodide based flow cytometric analysis (reference value: 1.14 %); type: functional
[30] = tested on: MCF7; assay: Induction of apoptosis in human MCF7 cells assessed as late apoptotic cells at 20 uM after 72 hrs by Annexin V-FITC/propidium iodide based flow cytometric analysis (reference value: 1.28 %); type: functional
[31] = tested on: MCF7; assay: Induction of apoptosis in human MCF7 cells assessed as necrotic cells at 20 uM after 72 hrs by Annexin V-FITC/propidium iodide based flow cytometric analysis (reference value: 3.48 %); type: functional
[32] = tested on: MDA-MB-231; assay: Induction of apoptosis in human MDA-MB-231 cells after 72 hrs by Annexin V-FITC/propidium iodide based flow cytometric analysis; type: functional, cell-based
[33] = tested on: MDA-MB-231; assay: Induction of apoptosis in human MDA-MB-231 cells assessed as downregulation of Bcl2 expression up to 20 uM after 72 hrs by Western blot analysis; type: functional, cell-based
[34] = Induction of apoptosis in human MDA-MB-231 cells assessed as upregulation of Bax expression up to 20 uM after 72 hrs by Western blot analysis; type: functional, cell-based
[35] = tested on: MDA-MB-231; assay: Induction in apoptosis in human MDA-MB-231 cells assessed as decrease in mitochondrial membrane potential at 20 uM after 24 hrs by JC1 fluorescent dye based confocal microscopic analysis; type: functional, cell-based
[36] = tested on: MDA-MB-231; assay: Induction of apoptosis in human MDA-MB-231 cells assessed as caspase-9 activation upto 20 uM after 72 hrs by Western blot analysis; type: functional, cell-based
[37] = tested on: MDA-MB-231; assay: Induction of apoptosis in human MDA-MB-231 cells assessed as caspase-3 activation upto 20 uM after 72 hrs by Western blot analysis; type: functional, cell-based

Q: For `CCOC(=O)/C=C/c1cc(O)c2c(c1)[C@@H](C(=O)OCC)[C@@H](c1ccc(O)c(O)c1)O2`, which Activity [1] is on record?
A: The Activity was 0.6%.

Q: What about the Activity [2] of the same molecule?
A: The Activity was 0.68%.

Q: What about the viability at 5 µM [3] of the same molecule?
A: Its viability at 5 µM is 91.5%.

Q: What about the IC50 [4] of the same molecule?
A: Its IC50 is 1420 nM.

Q: What about the IC50 [5] of the same molecule?
A: Its IC50 is 160 nM.

Q: And the IC50 [6]?
A: The IC50 was 200 nM.

Q: And the IC50 [7]?
A: Its IC50 is 140 nM.

Q: And the IC50 [8]?
A: The IC50 was 7000 nM.

Q: And the Activity [9]?
A: The Activity was “Dose-dependent effect”.

Q: What about the Activity [10] of the same molecule?
A: Its Activity is “Dose-dependent effect”.

Q: What about the Activity [11] of the same molecule?
A: The Activity was 0.2%.

Q: What about the viability at 5 µM [12] of the same molecule?
A: Its viability at 5 µM is 93%.

Q: What about the Activity [13] of the same molecule?
A: Its Activity is 6.73%.

Q: What about the Activity [14] of the same molecule?
A: The Activity was 0.1%.

Q: What about the viability at 10 µM [15] of the same molecule?
A: The viability at 10 µM was 77.1%.

Q: And the Activity [16]?
A: Its Activity is 19.5%.

Q: What about the Activity [17] of the same molecule?
A: Its Activity is 1.5%.

Q: And the Activity [18]?
A: The Activity was 1.9%.

Q: And the viability at 20 µM [19]?
A: Its viability at 20 µM is 68.3%.

Q: And the Activity [20]?
A: The Activity was 25.63%.

Q: What about the Activity [21] of the same molecule?
A: The Activity was 3.17%.

Q: And the Activity [22]?
A: The Activity was 2.87%.

Q: And the Activity [23]?
A: The Activity was 7.24%.

Q: And the viability at 10 µM [24]?
A: Its viability at 10 µM is 88.9%.

Q: What about the Activity [25] of the same molecule?
A: The Activity was 0.7%.

Q: And the Activity [26]?
A: The Activity was 1.1%.

Q: And the Activity [27]?
A: The Activity was 9.3%.

Q: What about the viability at 20 µM [28] of the same molecule?
A: Its viability at 20 µM is 84.9%.

Q: And the Activity [29]?
A: Its Activity is 1.22%.

Q: And the Activity [30]?
A: The Activity was 1.38%.

Q: What about the Activity [31] of the same molecule?
A: Its Activity is 12.46%.

Q: And the Activity [32]?
A: Its Activity is “Dose-dependent effect”.

Q: And the Activity [33]?
A: Its Activity is “Active”.

Q: What about the Activity [34] of the same molecule?
A: The Activity was “Active”.

Q: What about the Activity [35] of the same molecule?
A: The Activity was “Active”.

Q: And the Activity [36]?
A: The Activity was “Active”.

Q: What about the Activity [37] of the same molecule?
A: Its Activity is “Active”.

Source: ChEMBL document CHEMBL3856246, “Pharbilignan C induces apoptosis through a mitochondria-mediated intrinsic pathway in human breast cancer cells” (Bioorg Med Chem Lett, 2016)
